Measured values: patent publication US4575554A, “Substituted 2-pyridylmethylthio- and sulfinyl-benzimidazoles as gastric antisecretory agents” (The Upjohn Company, priority 1984, dated 1986)

Assays:
isolated gastric glands = assay: inhibition of acid secretion in isolated gastric glands of the rabbit; assay type: cell-based; conditions: Oryctolagus cuniculus, shown to be the most effective, read-out: ID50 (the source's name)
gastric acid secretion = assay: inhibition of gastric acid secretion in the rat, duration of activity after subcutaneous administration; assay type: in vivo; conditions: after 6 days, 50 mg/kg
Excerpt: A significant advantage of certain of the compounds of the instant invention, particularly those of the Formula I wherein R1 is hydrogen, X is =S(O), R3 is methyl or ethyl, R4 is hydrogen, and R2 is methylthio, ethylthio, or propylthio, is their long duration of activity when administered subcutaneously. Thus, even after 6 days 2[(4-ethylthio-3-ethylpyridin-2-ylmethyl)sulfinyl]-benzimidazole and 2-[(4-ethylthio-3-methylpyridin-2-ylmethyl)sulfinyl]-benzimidazole inhibited gastric acid secretion in the rat 68 and 82%, respectively, when administered subcutaneously at a dose of 50 mg/kg.

gastric(H^+ -K^+)ATPase = biological target: T1, gastric(H^+ -K^+)ATPase (Sus scrofa, UniProt P19156); assay: inhibition of K^+ -dependent ATP hydrolysis by isolated hog gastric membranes enriched with gastric (H^+ -K^+)ATPase; assay type: biochemical; conditions: shown to be the most effective, read-out: ID50 (the source's name)
T1 construct: isolated hog gastric membranes enriched with gastric(H^+ -K^+)ATPase; from tissue; host or cells: hog gastric membranes

(H^+ -K^+)ATPase = biological target: T2, (H^+ -K^+)ATPase (Rattus norvegicus, UniProt P09626); assay: in vivo inactivation of (H^+ -K^+)ATPase in the rat; conditions: shown to be the most effective
T2 construct: from tissue; host or cells: rat, in vivo (endogenous enzyme)
T2 sequence (P09626 2-1033 limits assumed): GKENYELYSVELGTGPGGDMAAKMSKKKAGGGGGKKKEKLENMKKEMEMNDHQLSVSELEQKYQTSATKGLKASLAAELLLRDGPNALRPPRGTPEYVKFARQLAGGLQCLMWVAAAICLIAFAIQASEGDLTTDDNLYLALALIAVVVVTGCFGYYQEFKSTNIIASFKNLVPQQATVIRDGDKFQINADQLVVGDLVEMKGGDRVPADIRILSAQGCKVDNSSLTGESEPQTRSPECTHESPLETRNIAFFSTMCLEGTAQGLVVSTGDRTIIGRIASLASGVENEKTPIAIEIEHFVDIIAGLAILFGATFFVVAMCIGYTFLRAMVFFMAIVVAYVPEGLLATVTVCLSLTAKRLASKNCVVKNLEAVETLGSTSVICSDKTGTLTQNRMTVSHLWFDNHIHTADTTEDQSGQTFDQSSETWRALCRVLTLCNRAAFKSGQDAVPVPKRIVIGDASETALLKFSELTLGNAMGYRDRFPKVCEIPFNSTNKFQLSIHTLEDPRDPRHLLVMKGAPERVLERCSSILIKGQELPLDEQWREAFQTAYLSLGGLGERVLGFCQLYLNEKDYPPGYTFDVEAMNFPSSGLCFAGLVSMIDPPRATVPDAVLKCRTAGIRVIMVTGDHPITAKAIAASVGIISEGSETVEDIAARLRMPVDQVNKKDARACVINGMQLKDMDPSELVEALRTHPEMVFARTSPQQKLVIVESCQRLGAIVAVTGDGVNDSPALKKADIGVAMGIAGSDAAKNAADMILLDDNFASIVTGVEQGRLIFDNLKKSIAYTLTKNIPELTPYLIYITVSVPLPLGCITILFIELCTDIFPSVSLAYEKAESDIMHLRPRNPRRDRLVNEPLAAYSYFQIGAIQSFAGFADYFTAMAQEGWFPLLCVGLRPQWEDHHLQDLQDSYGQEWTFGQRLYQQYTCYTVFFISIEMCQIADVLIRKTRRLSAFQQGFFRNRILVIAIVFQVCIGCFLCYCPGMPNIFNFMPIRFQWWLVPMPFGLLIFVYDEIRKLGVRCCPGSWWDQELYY
T2 sequence (P18598 whole entry partner): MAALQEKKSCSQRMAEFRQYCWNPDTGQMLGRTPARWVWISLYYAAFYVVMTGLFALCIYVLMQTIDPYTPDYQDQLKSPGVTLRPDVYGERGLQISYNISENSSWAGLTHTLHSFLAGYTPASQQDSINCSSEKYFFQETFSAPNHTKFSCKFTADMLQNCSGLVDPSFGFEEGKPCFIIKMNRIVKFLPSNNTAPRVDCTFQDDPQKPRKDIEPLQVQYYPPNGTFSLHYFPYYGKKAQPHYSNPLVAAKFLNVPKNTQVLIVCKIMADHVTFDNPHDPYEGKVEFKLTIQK

T1 sequence (P19156 2-1034 limits assumed): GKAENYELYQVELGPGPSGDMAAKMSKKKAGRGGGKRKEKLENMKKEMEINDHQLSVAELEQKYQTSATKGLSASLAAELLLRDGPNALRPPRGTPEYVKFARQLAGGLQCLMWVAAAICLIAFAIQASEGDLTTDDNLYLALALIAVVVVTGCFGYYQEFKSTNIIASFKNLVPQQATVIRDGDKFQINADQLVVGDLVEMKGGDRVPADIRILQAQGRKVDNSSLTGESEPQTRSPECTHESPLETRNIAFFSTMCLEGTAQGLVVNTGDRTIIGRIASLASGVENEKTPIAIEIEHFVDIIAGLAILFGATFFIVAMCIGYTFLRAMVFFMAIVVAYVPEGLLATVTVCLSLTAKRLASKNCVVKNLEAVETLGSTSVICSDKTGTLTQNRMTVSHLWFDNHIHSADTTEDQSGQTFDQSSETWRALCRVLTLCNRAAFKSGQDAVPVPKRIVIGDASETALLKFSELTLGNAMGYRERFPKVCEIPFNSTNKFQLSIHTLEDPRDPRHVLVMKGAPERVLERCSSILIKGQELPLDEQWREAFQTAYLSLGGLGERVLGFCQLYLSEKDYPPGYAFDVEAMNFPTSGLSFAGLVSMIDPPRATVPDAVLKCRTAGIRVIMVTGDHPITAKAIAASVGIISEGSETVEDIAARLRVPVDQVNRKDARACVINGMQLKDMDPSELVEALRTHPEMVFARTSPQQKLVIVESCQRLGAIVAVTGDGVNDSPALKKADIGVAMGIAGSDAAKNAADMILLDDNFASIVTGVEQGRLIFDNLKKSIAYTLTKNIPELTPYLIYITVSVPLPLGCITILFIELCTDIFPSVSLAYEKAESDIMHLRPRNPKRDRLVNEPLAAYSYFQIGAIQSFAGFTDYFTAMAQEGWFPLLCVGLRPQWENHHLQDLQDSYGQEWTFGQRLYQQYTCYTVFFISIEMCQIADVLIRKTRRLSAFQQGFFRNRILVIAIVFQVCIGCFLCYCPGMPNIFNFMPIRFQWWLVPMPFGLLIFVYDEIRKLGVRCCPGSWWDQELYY
T1 sequence (P18434 whole entry partner): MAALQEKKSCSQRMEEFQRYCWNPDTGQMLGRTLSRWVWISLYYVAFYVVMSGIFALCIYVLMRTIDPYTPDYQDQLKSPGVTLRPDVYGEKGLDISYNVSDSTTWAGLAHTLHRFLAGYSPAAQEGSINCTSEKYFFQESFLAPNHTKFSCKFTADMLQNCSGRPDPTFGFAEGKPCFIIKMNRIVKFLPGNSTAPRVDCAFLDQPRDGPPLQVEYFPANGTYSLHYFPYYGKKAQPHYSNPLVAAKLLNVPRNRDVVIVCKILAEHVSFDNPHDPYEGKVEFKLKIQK

Row | SMILES | IC50 (isolated gastric glands) [nM] | inhibition of gastric acid secretion (gastric acid secretion) [%] | IC50 (gastric(H^+ -K^+)ATPase) [nM] | ED50 ((H^+ -K^+)ATPase) [mg/kg]
1 | CCSc1ccnc(C[S+]([O-])c2nc3ccccc3[nH]2)c1CC (centres unmarked) [Compound 12, 2-[(4-ethylthio-3-ethylpyridin-2-ylmethyl)sulfinyl]-benzimidazole] | 100 | 68 |  | 
2 | CCc1c(OC)ccnc1C[S+]([O-])c1nc2ccccc2[nH]1 (centres unmarked) [Compound 15, 2-[(4-methoxy-3-ethylpyridin-2-ylmethyl)sulfinyl]-benzimidazole] |  |  | 3000 | 
3 | CCSc1ccnc(C[S+]([O-])c2nc3ccccc3[nH]2)c1C (centres unmarked) [Compound 7, 2-[(4-ethylthio-3-methylpyridin-2-ylmethyl)sulfinyl]-benzimidazole] |  | 82 |  | 1
